{
  "source": "patent US5705687A",
  "about": "“Neurotropic drug and method for preparation of same” (priority 1993, dated 1998)",
  "key": {"[1]": {"experiment": "Acute toxicity in mice (Litchfield-Wilcockson)", "format": "in vivo, white crossbred mice", "conditions": "mouse, in vivo"}, "[2]": {"system": "mice", "experiment": "Acute toxicity in mice (Litchfield-Wilcockson)", "format": "in vivo, white crossbred mice", "conditions": "i.p., single dose"}, "[3]": {"system": "mice", "experiment": "Rotating rod: myorelaxation and movement coordination", "format": "in vivo, white crossbred mice", "conditions": "same dosage range (0.1 to 150 mg/kg), entire test period 3.5 hours", "method": "The myorelaxing effect of the new compounds was tested by the method of the \"rotating rod\"(Dunham N. W., Miga T. S., A note on a simplex apparatus for detecting neurological deficit in rat and mice, J. Am. Pharm. Ass., 1957, vol. 46, No. 3, pp. 208-209), which allows one to record any abnormalities in coordination and balance, as well as ataxia. The mice in the laboratory tests were placed on a horizontal rod, 2 cm in diameter, rotating at a speed of 5 revolutions per minute. The object was to register the number of mice which were able to maintain equilibrium on the rod for two minutes. Any presence of a myorelaxing component was considered to be a side effect of the substance being studied."}, "[4]": {"system": "mice", "experiment": "Hypoxic (hypercapnic) normobaric hypoxia, lifespan", "format": "in vivo", "conditions": "for Average lifespan: control 411 ± 11.9, P < 0.001; for Lifespan, % effect: control = 100", "method": "(§1) The antihypoxic properties of the new compounds were tested in the models of hypoxic normobaric, hemic and histotoxic hypoxia. The hypoxic (hypercapnic) normobaric hypoxia was induced by placing the mice in hermetically sealed transparent boxes, subdivided into compartments, 80 cm^3 each. The animals were observed until all respiratory movements ceased. The hemic hypoxia was induced by the intraperitoneal administration of sodium nitrite in a dose of 400 mg/kg. The hystotoxic hypoxia was induced by the intraperitoneal administration of sodium nitroprussiate, in a dose of a 20 mg/kg dosage."}, "[5]": {"system": "mice", "experiment": "Histotoxic hypoxia (sodium nitroprussiate), lifespan", "format": "in vivo", "conditions": "for Lifespan, % effect: Na-nitro-prussiate alone = 100", "method": "as §1"}, "[6]": {"system": "mice", "experiment": "Hemic hypoxia (sodium nitrite), lifespan", "format": "in vivo", "conditions": "for Lifespan, % effect: Na-nitrite alone = 100", "method": "as §1"}, "[7]": {"system": "mice", "experiment": "Conditioned reaction of passive avoidance (CPRA), amnesia by electric shock", "format": "in vivo", "conditions": "for Latent period after training: 24 h, amnesia control 31.1; for % effect (latent period): control + amnesia 91.2, w/o amnesia 288.1; for Δt, increase in latent period (t ± m, sec): amnesia control -3 ± 6", "text": "The effect produced by the new substance on the processes of the central nervous system was examined on the model of one-time training of mice, of conditioned reaction of passive avoidance (CPRA), where the amnesic effect was produced by electric shock. During the tests, a two-section chamber was used to condition a certain reflex to the lit and darkened sections. First, for two minutes, the amount of time was registered, that a mouse spent in the lit section before entering the darkened section. Then, while in the darkened section, the animal would receive a single electric shock through the electrode floor (training). The training was immediately followed by an electric shock (50 Hz, 0.2 see). […] The substance was intraperitoneally administered 40 min. prior to the start of the training, the control group received a physiological solution. […] The anti-amnesic properties of the new compound are represented by an increase in the latent period before and after the training. (Δt)"}},
  "note": "Structures can show the parent of a compound that is named as a salt.",
  "data": [
    {"compound": "CC(C)(CO)C(=O)C(=O)NCCCC(=O)O", "note": "[KPA-Ca, calcium salt of ketopantoyl aminobutyrate]", "values": [
      {"measurement": "LD50", "setting": "[1]; intravenous, read-out: DL50 (the source's name)", "result": "1040 ± 13.5", "unit": "mg/kg"},
      {"measurement": "MTD", "setting": "[1]; ip, read-out: maximum tolerance level", "result": 1500, "unit": "mg/kg"},
      {"measurement": "LD10 (acute toxicity)", "setting": "[2]", "result": "2234.3 ± 60.7", "unit": "mg/kg"},
      {"measurement": "ataxia, myorelaxation, loss of movement coordination", "setting": "[3]", "result": "did not induce any ataxia, myorelaxation or loss of movement coordination"},
      {"measurement": "Average lifespan", "setting": "[4]; 10 mg/kg", "result": "558 ± 21.5", "unit": "s"},
      {"measurement": "Lifespan, % effect", "setting": "[4]; 10 mg/kg", "result": 135.8, "unit": "%"},
      {"measurement": "Average lifespan", "setting": "[4]; 25 mg/kg", "result": "570 ± 17.3", "unit": "s"},
      {"measurement": "Lifespan, % effect", "setting": "[4]; 25 mg/kg", "result": 138.7, "unit": "%"},
      {"measurement": "Average lifespan", "setting": "[4]; 50 mg/kg", "result": "588 ± 22.4", "unit": "s"},
      {"measurement": "Lifespan, % effect", "setting": "[4]; 50 mg/kg", "result": 143.1, "unit": "%"},
      {"measurement": "Average lifespan", "setting": "[4]; 100 mg/kg", "result": "600 ± 30.7", "unit": "s"},
      {"measurement": "Lifespan, % effect", "setting": "[4]; 100 mg/kg", "result": 146, "unit": "%"},
      {"measurement": "extension of lifespan compared to control group", "setting": "[4]; 10 to 100 mg/kg", "result": "35.8-46%"},
      {"measurement": "Average lifespan", "setting": "[5]; 10 mg/kg + Na-nitro-prussiate 20 mg/kg", "result": "798 ± 38", "unit": "s"},
      {"measurement": "Lifespan, % effect", "setting": "[5]; 10 mg/kg", "result": 104.3, "unit": "%"},
      {"measurement": "Average lifespan", "setting": "[5]; 25 mg/kg + Na-nitro-prussiate 20 mg/kg", "result": "855 ± 43.2", "unit": "s"},
      {"measurement": "Lifespan, % effect", "setting": "[5]; 25 mg/kg", "result": 111.8, "unit": "%"},
      {"measurement": "increase in lifespan", "setting": "[5]; 50 mg/kg", "result": 21.6, "unit": "%"},
      {"measurement": "Average lifespan", "setting": "[5]; 50 mg/kg + Na-nitro-prussiate 20 mg/kg, P < 0.05", "result": "930 ± 55.1", "unit": "s"},
      {"measurement": "Lifespan, % effect", "setting": "[5]; 50 mg/kg", "result": 121.6, "unit": "%"},
      {"measurement": "increase in lifespan", "setting": "[5]; 100 mg/kg", "result": 38.4, "unit": "%"},
      {"measurement": "Average lifespan", "setting": "[5]; 100 mg/kg + Na-nitro-prussiate 20 mg/kg, P < 0.01", "result": "1059 ± 64", "unit": "s"},
      {"measurement": "Lifespan, % effect", "setting": "[5]; 100 mg/kg", "result": 138.4, "unit": "%"},
      {"measurement": "Average lifespan", "setting": "[6]; 10 mg/kg + Na-nitrite 400 mg/kg", "result": "777 ± 30.1", "unit": "s"},
      {"measurement": "Lifespan, % effect", "setting": "[6]; 10 mg/kg", "result": 98.3, "unit": "%"},
      {"measurement": "Average lifespan", "setting": "[6]; 25 mg/kg + Na-nitrite 400 mg/kg", "result": "780 ± 30.3", "unit": "s"},
      {"measurement": "Lifespan, % effect", "setting": "[6]; 25 mg/kg", "result": 98.7, "unit": "%"},
      {"measurement": "Average lifespan", "setting": "[6]; 50 mg/kg + Na-nitrite 400 mg/kg", "result": "819 ± 41", "unit": "s"},
      {"measurement": "Lifespan, % effect", "setting": "[6]; 50 mg/kg", "result": 103.6, "unit": "%"},
      {"measurement": "increase in effect (lifespan)", "setting": "[6]; 100 mg/kg", "result": 19.9, "unit": "%"},
      {"measurement": "Average lifespan", "setting": "[6]; 100 mg/kg + Na-nitrite 400 mg/kg, P < 0.01", "result": "948 ± 40.3", "unit": "s"},
      {"measurement": "Lifespan, % effect", "setting": "[6]; 100 mg/kg", "result": 119.9, "unit": "%"},
      {"measurement": "activity in hemic hypoxia (in words)", "setting": "[6]; 10 to 100 mg/kg", "result": "little activity"},
      {"measurement": "Latent period before training", "setting": "[7]; 10 mg/kg i.p., 40 min before training", "result": 27.1, "unit": "s"},
      {"measurement": "Latent period after training", "setting": "[7]; 10 mg/kg i.p.", "result": 90.3, "unit": "s"},
      {"measurement": "% effect (latent period)", "setting": "[7]; 10 mg/kg i.p.", "result": 334.4, "unit": "%"},
      {"measurement": "Δt, increase in latent period (t ± m, sec)", "setting": "[7]; 10 mg/kg i.p., spread 12.6, P < 0.01", "result": 63.2, "unit": "s"},
      {"measurement": "Latent period before training", "setting": "[7]; 25 mg/kg i.p.", "result": 31.4, "unit": "s"},
      {"measurement": "Latent period after training", "setting": "[7]; 25 mg/kg i.p.", "result": 102.4, "unit": "s"},
      {"measurement": "Δt, increase in latent period (t ± m, sec)", "setting": "[7]; 25 mg/kg i.p., P < 0.001", "result": "71 ± 9", "unit": "s"},
      {"measurement": "% effect (latent period)", "setting": "[7]; 25 mg/kg i.p.", "result": 396.1, "unit": "%"},
      {"measurement": "Latent period before training", "setting": "[7]; 50 mg/kg i.p.", "result": 30.6, "unit": "s"},
      {"measurement": "Latent period after training", "setting": "[7]; 50 mg/kg i.p.", "result": 77.8, "unit": "s"},
      {"measurement": "% effect (latent period)", "setting": "[7]; 50 mg/kg i.p.", "result": 254.2, "unit": "%"},
      {"measurement": "Δt, increase in latent period (t ± m, sec)", "setting": "[7]; 50 mg/kg i.p., spread 13.3, P < 0.01", "result": 47.2, "unit": "s"},
      {"measurement": "Latent period before training", "setting": "[7]; 100 mg/kg i.p.", "result": 31.8, "unit": "s"},
      {"measurement": "Latent period after training", "setting": "[7]; 100 mg/kg i.p.", "result": 82.8, "unit": "s"},
      {"measurement": "Δt, increase in latent period (t ± m, sec)", "setting": "[7]; 100 mg/kg i.p., P < 0.01", "result": "51 ± 14.1", "unit": "s"}
    ]}
  ]
}
